The results in this text go back to US11053253B2, “Macrocyclic compounds for treatment of medical disorders” (Achillion Pharmaceuticals, Inc., priority 2017, dated 2021).

Sequence of Human Factor D (P00746 26-253): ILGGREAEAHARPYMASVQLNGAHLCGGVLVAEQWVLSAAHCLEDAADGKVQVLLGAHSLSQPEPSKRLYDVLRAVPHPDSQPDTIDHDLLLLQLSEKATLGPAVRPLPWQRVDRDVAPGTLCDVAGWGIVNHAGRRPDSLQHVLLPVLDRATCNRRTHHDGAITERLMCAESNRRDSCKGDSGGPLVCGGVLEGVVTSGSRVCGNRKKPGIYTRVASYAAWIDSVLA

This test has as its target Human Factor D (Homo sapiens (Human), UniProt P00746). Briefly: Human Factor D Assay. The test is classed as biochemical. Conditions: Human Factor D 80 nM, substrate Z-L-Lys-SBzl, DTNB, A405; read-out: IC50 (Stars). The protocol: Example 2. Human Factor D Assay
Human Factor D (purified from human serum, Complement Technology, Inc.) at 80 nM final concentration is incubated with test compound at various concentrations for 5 min at room temperature in 50 mM Tris, 1M NaCl, pH 7.5. A synthetic substrate Z-L-Lys-SBzl and DTNB (Ellman's reagent) are added to final concentrations of 100 µM each. Absorbance at 405 nm (A405) is recorded at 30 second intervals for 30 minutes using a microplate spectrophotometer. IC50 values are calculated by nonlinear regression of Complement Factor D reaction rates as a function of test compound concentration.
Usually IC50 stands for the concentration at which inhibition is half-maximal. As to `CC(=O)c1nn2c3c(cc(-c4cnc(C)nc4)cc13)CCCCCCC(=O)NC[C@]1(F)C[C@@H](C(=O)Nc3nc(C(F)(F)F)ccc3C)N(C1)C(=O)C2` [Compound T-128], the IC50 is less than 1000 nM. `CC(=O)c1nn2c3c(cc(-c4cnc(C)nc4)cc13)CCCCCCC(=O)NC[C@@]13C[C@@H](C(=O)NCc4cccc(Cl)c4)N(C(=O)C2)[C@@H]1C3` [Compound T-95]: the IC50 was less than 1000 nM. `CC(=O)c1nn(CC(=O)N2[C@H]3C[C@@]4(COc5cccc(n5)CCCCCCCc5ccc(Br)nc5NC3=O)C[C@@H]24)c2ccc(-c3cnc(C)nc3)cc12` [Compound T-165]: the IC50 is less than 1000 nM. For the molecule `CC(=O)c1nn(CC(=O)N2[C@H]3C[C@@]4(C=CCCCCCN(C)Cc5ccc(Br)nc5NC3=O)C[C@@H]24)c2c(CF)cc(-c3cnc(C)nc3)cc12` [Compound T-59], the IC50 was less than 1000 nM. Regarding `CC(=O)c1nn(CC(=O)N2[C@H]3C[C@]4(C[C@@H]24)Cn2ccc(n2)/C=C\COCc2ccc(Br)nc2NC3=O)c2cnc(-c3cnc(C)nc3)cc12` [Compound T-70], the IC50 was less than 1000 nM. The same measure for `Cc1ncc(-c2cc3c4c(c2)c(C(N)=O)nn4CC(=O)N2[C@H](C(=O)Nc4nc(C(F)(F)F)ccc4C)C[C@@]4(CNC(=O)CCCC=CC3)C[C@@H]24)cn1` [Compound T-134]: less than 1000 nM; for `CC(=O)c1nn(CC(=O)N2[C@H]3C[C@]4(C[C@@H]24)Cn2ccc(n2)C=CCCC(F)(F)c2ccc(Br)nc2NC3=O)c2ccc(-c3cnc(C)nc3)cc12` [Compound T-104]: less than 1000 nM; for `COc1cc(NC(=O)[C@@H]2C[C@]34CNC(=O)CCCCCCc5cc(-c6cnc(C)nc6)cc6c(C(C)=O)nn(c56)CC(=O)N2[C@@H]3C4)nc(Br)c1F` [Compound T-228]: less than 1000 nM. With `CC(=O)c1nn2c3c(cc(-c4cnc(C)nc4)cc13)CCCCCc1cccc(n1)OC[C@@]13C[C@@H](C(=O)Nc4nc(Br)ccc4C)N(C(=O)C2)[C@@H]1C3` [Compound T-141], the IC50 is less than 1000 nM. Turning to `CC(=O)c1nn2c3c(cc(-c4cnc(C)nc4)cc13)CCC=CCCCC(=O)NC[C@@]13C[C@@H](C(=O)Nc4nc(Br)ccc4C)N(C(=O)C2)[C@@H]1C3` [Compound T-20, (41R,43S,45R)-13-acetyl-N-(6-bromo-3-methylpyridin-2-yl)-15-(2-methylpyrimidin-5-yl)-3,7-dioxo-11H-42,6-diaza-1(1,7)-indazola-4(2,5)-bicyclo[3.1.0]hexanacyclotetradecaphan-11-ene-43-carboxamide], the concentration for half-maximal inhibition (IC50) is less than 1000 nM. With `Cc1ncc(-c2cc3c4c(c2)c(C(N)=O)nn4CC(=O)N2[C@H](C(=O)Nc4nc(Br)ccc4C)C[C@@]4(CNC(=O)CCCCCC3)C[C@@H]24)cn1` [Compound T-153], the IC50 is less than 1000 nM.

With `CC(=O)c1nn2c3c(cc(-c4cnc(C)nc4)cc13)CC=CCCCC(=O)NC[C@@]13C[C@@H](C(=O)Nc4ccn(CC(F)(F)F)n4)N(C(=O)C2)[C@@H]1C3` [Compound T-91], the IC50 was less than 1000 nM.

On to `CC(=O)c1nn2c3c(cc(-c4cnc(C)nc4)cc13)CCCCCCCc1cccc(c1)COC[C@@]13C[C@@H](C(=O)Nc4nc(Br)ccc4C)N(C(=O)C2)[C@@H]1C3` [Compound T-136], for which the IC50 was less than 1000 nM. In the case of `CC(=O)c1nn2c3c(cc(-c4cnc(C)nc4)cc13)CCCCCCc1cccc(n1)OC[C@@]13C[C@@H](C(=O)Nc4nc(Br)ccc4C)N(C(=O)C2)[C@@H]1C3` [Compound T-140], the IC50 was less than 1000 nM. The same measure for `CC(=O)c1nn(CC(=O)N2[C@H]3C[C@@]4(CNC(=O)C(F)(F)CCCOCc5ccc(Br)nc5NC3=O)C[C@@H]24)c2ccc(-c3cnc(C)nc3)cc12` [Compound T-157]: less than 1000 nM. `CC(=O)c1nn2c3c(cc(-c4cnc(C5CC5)nc4)cc13)CCCCCCC(=O)NC[C@@]13C[C@@H](C(=O)Nc4nc(C(F)(F)F)ccc4C)N(C(=O)C2)[C@@H]1C3` [Compound T-242]: the IC50 was less than 1000 nM.

Consider `CC(=O)c1nn2c3c(cc(-c4cnc(C)nc4)cc13)CC=CCCCC(=O)NC[C@]1(F)CN(C[C@@H]1C(=O)Nc1nc(C(F)(F)F)ccc1C)C(=O)C2` [Compound T-167], for which the IC50 is less than 1000 nM. Then `CC(=O)c1nn(CC(=O)N2[C@H]3C[C@@]4(CNC(=O)C(C)(C)C=CCOCc5ccc(C(F)(F)F)nc5NC3=O)C[C@@H]24)c2ccc(-c3cnc(C)nc3)cc12` [Compound T-235], with less than 1000 nM; and `CC(=O)c1nn2c3c(cc(-c4cnc(C)nc4)cc13)CC=CCCCC(=O)NC[C@@]13C[C@@H](C(=O)Nc4nc(Br)ccc4C)N(C(=O)C2)[C@@H]1C3` [Compound T-21, (41R,43S,45R)-13-acetyl-N-(6-bromo-3-methylpyridin-2-yl)-15-(2-methylpyrimidin-5-yl)-3,7-dioxo-11H-42,6-diaza-1(1,7)-indazoia-4(2,5)-bicyclo[3.1.0]hexanacyclotridecaphan-11-ene-43-carboxamide], with less than 1000 nM; and `CC(=O)c1nn2c3c(cc(-c4cnc(C)nc4)cc13)CCCCCCC(=O)NC[C@@]13C[C@@H](C(=O)Nc4nc(C(F)(F)F)ccc4C)N(C(=O)C2)[C@@H]1C3` [Compound T-220], with less than 1000 nM.

For the molecule `CC(=O)c1nn(CC(=O)N2[C@H]3C[C@@]4(COCCCCOCc5ccc(Br)nc5NC3=O)C[C@@H]24)c2ccc(-c3cnc(C)nc3)cc12` [Compound T-4, (41R,43S,45S)-42-(2-(3-acetyl-5-(2-methylpyrimidin-5-yl)-1H-indazol-1-yl)acetyl)-16-bromo-6,11-dioxa-42,2-diaza-1(2,3)-pyridina-4(3,5)-bicyclo[3.1.0]hexanacyclododecaphan-3-one], the IC50 was less than 1000 nM. Regarding `CC(=O)c1nn2c3cc(c(-c4cnc(C)nc4)cc13)OCCC/C=C/COC[C@@]13C[C@@H](C(=O)Nc4nc(Br)ccc4C)N(C(=O)C2)[C@@H]1C3` [Compound T-79], the IC50 is less than 1000 nM.

As to `CC(=O)c1nn2c3c(cc(-c4cnc(C)nc4)cc13)CCCCCCCc1cccc(n1)OC[C@@]13C[C@@H](C(=O)Nc4nc(Br)ccc4C)N(C(=O)C2)[C@@H]1C3` [Compound T-139], the IC50 was less than 1000 nM. Take `CC(=O)c1nn(CC(=O)N2C[C@@]3(F)CNC(=O)CCCCCOCc4ccc(Br)nc4NC(=O)[C@@H]2C3)c2ccc(-c3cnc(C)nc3)cc12` [Compound T-178]: the IC50 was less than 1000 nM. The same measure for `CC(=O)c1nn2c3c(cc(-c4cnc5ccnn5c4)cc13)CCCCCCC(=O)NC[C@@]13C[C@@H](C(=O)Nc4nc(C(F)(F)F)ccc4C)N(C(=O)C2)[C@@H]1C3` [Compound T-255]: less than 1000 nM; for `CC(=O)c1nn2c3c(cc(-c4cnc(C)nc4)cc13)CC=CCCCC(=O)NC[C@@]13C[C@@H](C(=O)Nc4nc(C(F)(F)F)ccc4C)N(C(=O)C2)[C@@H]1C3` [Compound T-219]: less than 1000 nM. Take `CC(=O)c1nn(CC(=O)N2[C@H]3C[C@@]4(CCCCCCCCc5ccc(Br)nc5NC3=O)C[C@@H]24)c2cnc(-c3cnc(C)nc3)cc12` [Compound T-46]: the IC50 was less than 1000 nM. As to `CC(=O)c1nn(CC(=O)N2C[C@@]3(F)CNC(=O)C(C)(C)CC=CCOCc4ccc(Br)nc4NC(=O)[C@@H]2C3)c2cnc(-c3cnc(C)nc3)cc12` [Compound T-170], the IC50 was less than 1000 nM. The same measure for `CC(=O)c1nn2c3c(cc(-c4cnc(C)nc4)cc13)CCCCCCC(=O)NC[C@@]13C[C@@H](C(=O)N[C@H](C)CC(C)(C)C)N(C(=O)C2)[C@@H]1C3` [Compound T-231]: less than 1000 nM.
